Literature values, collected in patent US20250114344A1, “COMBINATORIAL PHARMACOTHERAPY FOR THE RESTORATION OF NEURO-FUNCTION AND COMBINATORIAL PHARMACOLOGICAL COMPOSITION THEREFORE” (Neuro-Innovators, LLC., priority 2022, published 2025).

What was measured:
[1] = compared with aspirin; fewer hemorrhagic events
[2] = target: CYP3A4 (Homo sapiens, UniProt P08684)
[3] = tested on: MANF (a form of BDNF); conditions: Prefrontal Cortex and Striatum, compared to controls

Chain of CYP3A4 (P08684 whole entry, species assumed): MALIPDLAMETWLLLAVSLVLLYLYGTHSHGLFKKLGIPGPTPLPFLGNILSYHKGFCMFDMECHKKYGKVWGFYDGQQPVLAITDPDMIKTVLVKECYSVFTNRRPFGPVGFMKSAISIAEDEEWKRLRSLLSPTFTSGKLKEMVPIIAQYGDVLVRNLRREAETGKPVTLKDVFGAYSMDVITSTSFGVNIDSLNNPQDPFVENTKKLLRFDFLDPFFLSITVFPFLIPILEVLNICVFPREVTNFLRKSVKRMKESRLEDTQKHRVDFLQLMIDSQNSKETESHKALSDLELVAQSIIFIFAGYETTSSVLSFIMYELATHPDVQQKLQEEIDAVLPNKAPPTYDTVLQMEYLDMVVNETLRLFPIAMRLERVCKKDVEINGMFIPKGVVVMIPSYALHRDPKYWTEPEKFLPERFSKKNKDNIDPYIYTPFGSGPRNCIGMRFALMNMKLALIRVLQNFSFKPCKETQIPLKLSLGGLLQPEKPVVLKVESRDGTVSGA

Structure (SMILES)	incidence of recurrent stroke [1]	interaction with CYP3A4 [2]	MANF expression [3]
O=C1CCc2cc(OCCCCc3nnnn3C3CCCCC3)ccc2N1 [Cilostazol]	significantly reduce the incidence of recurrent stroke	substrate for CYP3A4	
O=C([O-])[O-].[Li+].[Li+] [lithium, Lithium Carbonate]			significant increase
